Assay results from the NIST ThermoML archive (doi:10.1016/j.fluid.2007.11.005).
± gives the expanded uncertainty stated by the source.

Conditions: Liquid, Bellows volumetry

CCCCCCCCOS(=O)(=O)[O-].CCCCn1cc[n+](C)c1 [1-butyl-3-methylimidazolium octyl sulfate]
mass density [kg/m3]
Conditions | 312.9 K | 332.8 K | 352.8 K | 373 K | 393.1 K | 413 K | 432.9 K | 452.7 K | 472.6 K
100 kPa | 1060 ± 6 | – | – | – | – | – | – | – | –
10000 kPa | 1065 ± 6 | 1052 ± 6 | 1040 ± 6 | 1028 ± 6 | 1016 ± 6 | 1004 ± 5 | 992 ± 5 | 978 ± 5 | 964 ± 5
20000 kPa | 1070 ± 6 | 1058 ± 6 | 1046 ± 6 | 1034 ± 6 | 1023 ± 6 | 1011 ± 6 | 999 ± 5 | 985 ± 5 | 972 ± 5
30000 kPa | 1075 ± 6 | 1063 ± 6 | 1051 ± 6 | 1040 ± 6 | 1028 ± 6 | 1017 ± 6 | 1006 ± 5 | 992 ± 5 | 980 ± 5
40000 kPa | 1080 ± 6 | 1068 ± 6 | 1056 ± 6 | 1045 ± 6 | 1034 ± 6 | 1023 ± 6 | 1012 ± 6 | 999 ± 5 | 987 ± 5
50000 kPa | 1084 ± 6 | 1073 ± 6 | 1061 ± 6 | 1050 ± 6 | 1039 ± 6 | 1029 ± 6 | 1018 ± 6 | 1005 ± 5 | 993 ± 5
60000 kPa | 1091 ± 6 | 1077 ± 6 | 1066 ± 6 | 1055 ± 6 | 1045 ± 6 | 1034 ± 6 | 1023 ± 6 | 1011 ± 6 | 999 ± 5
70000 kPa | 1093 ± 6 | 1081 ± 6 | 1070 ± 6 | 1060 ± 6 | 1049 ± 6 | 1039 ± 6 | 1029 ± 6 | 1017 ± 6 | 1005 ± 5
80000 kPa | 1097 ± 6 | 1085 ± 6 | 1075 ± 6 | 1064 ± 6 | 1054 ± 6 | 1044 ± 6 | 1034 ± 6 | 1022 ± 6 | 1011 ± 6
90000 kPa | 1096 ± 6 | 1089 ± 6 | 1079 ± 6 | 1068 ± 6 | 1058 ± 6 | 1049 ± 6 | 1038 ± 6 | 1027 ± 6 | 1016 ± 6
100000 kPa | – | 1093 ± 6 | 1083 ± 6 | 1073 ± 6 | 1063 ± 6 | 1053 ± 6 | 1043 ± 6 | 1032 ± 6 | 1021 ± 6
110000 kPa | – | 1097 ± 6 | 1087 ± 6 | 1077 ± 6 | 1067 ± 6 | 1057 ± 6 | 1048 ± 6 | 1036 ± 6 | 1026 ± 6
120000 kPa | – | 1101 ± 7 | 1090 ± 6 | 1080 ± 6 | 1071 ± 6 | 1062 ± 6 | 1052 ± 6 | 1041 ± 6 | 1030 ± 6
130000 kPa | – | 1104 ± 7 | 1094 ± 6 | 1084 ± 6 | 1075 ± 6 | 1066 ± 6 | 1056 ± 6 | 1045 ± 6 | 1035 ± 6
140000 kPa | – | 1107 ± 7 | 1097 ± 6 | 1088 ± 6 | 1078 ± 6 | 1069 ± 6 | 1060 ± 6 | 1049 ± 6 | 1039 ± 6
150000 kPa | – | 1111 ± 7 | 1101 ± 7 | 1091 ± 6 | 1082 ± 6 | 1073 ± 6 | 1064 ± 6 | 1053 ± 6 | 1043 ± 6
160000 kPa | – | 1114 ± 7 | 1104 ± 7 | 1095 ± 6 | 1086 ± 6 | 1077 ± 6 | 1068 ± 6 | 1057 ± 6 | 1047 ± 6
170000 kPa | – | 1117 ± 7 | 1107 ± 7 | 1098 ± 7 | 1089 ± 6 | 1080 ± 6 | 1071 ± 6 | 1061 ± 6 | 1051 ± 6
180000 kPa | – | 1120 ± 7 | 1111 ± 7 | 1102 ± 7 | 1093 ± 6 | 1084 ± 6 | 1075 ± 6 | 1065 ± 6 | 1055 ± 6
190000 kPa | – | 1123 ± 7 | 1114 ± 7 | 1105 ± 7 | 1096 ± 7 | 1087 ± 6 | 1078 ± 6 | 1068 ± 6 | 1059 ± 6
200000 kPa | – | 1126 ± 7 | 1117 ± 7 | 1108 ± 7 | 1099 ± 7 | 1091 ± 6 | 1082 ± 6 | 1072 ± 6 | 1062 ± 6
